Consider 24 compounds from patent publication US20230286956A1 (DUKSUNG WOMEN'S UNIVERSITY INDUSTRY-ACADEMIC COOPERATION …, priority 2020, published 2023).

Molecules are shown by their SMILES.

A short description of one data set: in vivo. Details: species or system SD rats. The note with it: SD, rat, po. How it is done: The bioavailability (BA) and pharmacokinetic properties of the compounds of the present invention were evaluated in an animal model. The compounds were administered to 8-week-old SD rats (300 to 350 g) at a dose of 2 to 5 mg/kg through oral and intravenous administration routes. After administration, blood was collected at regular time intervals and the time course of blood concentration was analyzed.

Data set [1] has as its system wild-type red mold strain GZ3639. Put plainly: Inhibition of spore germination / reactive oxygen species generation through NOX enzyme inhibition in red mold. It is filed as cell-based. The note with it: 24 h, read-out: IC50 (µM), compound concentration at which the spore germination inhibition rate was 50%. How it is done: When NADPH oxidase (NOX), which is involved in the generation of reactive oxygen species in red mold, is inhibited, normal mycelial growth is inhibited, abnormal form of monocyclic conidia is formed, and germination is inhibited. The abnormal phenotype caused by the reduction of reactive oxygen species in red mold can be easily observed under an optical microscope. Through this, the ability to inhibit generation of reactive oxygen species through NOX inhibition was evaluated.
Specifically, for the evaluation of compound activity, 0.1 mM of the compound was added to a minimum medium (MM20) spore suspension diluted to ⅕. Spores ([…]) of wild-type red mold strain GZ3639 were inoculated into the medium and cultured at 25° C. for 24 h, followed by microscopic observation. Compounds having a germination inhibition rate and microcycle conidiation to be 50% or more of those in normal germination were selected, and their activities were evaluated at concentrations of 50 µM, 25 µM, and 10 µM. At this time, the activity of substances having a germination inhibition rate of 95% at 10 µM was further evaluated at concentrations of 5 µM, 1 µM, 0.5 µM, and 0.1 µM. Based on the result of this evaluation, the compound concentration (inhibitory concentration 50%, IC50) at which the spore germination inhibition rate was 50% was determined.

The subject of data set [2] is substantia nigra dopaminergic neurons. As to the kind of experiment: Inhibition of dopaminergic nerve cell death in MPTP animal model of Parkinson's disease (tyrosine hydroxylase immunostaining). It is filed as in vivo, C57B16/J mice. The conditions noted are these: Evaluations 3 and 4: intraperitoneal 5 mg/kg, 1 week before and after MPTP. The protocol: The dopaminergic neuronal cell protecting effect of the compound of the present invention was evaluated in an animal model of Parkinson’s disease. The animal model used was 7-week-old C57B16/J mice (23 to 25 g), to which MPTP (15 mg/kg) was administered 4 times at 1.5 hour intervals. For 1 to 2 days after administration, behavior was noticeably slowed and gradually recovered. In 1 week after MPTP administration, behavior was almost normalized to a level similar to that of normal mice.
In order to evaluate the efficacy of the compounds of the present invention, Compounds 1aaa (Compound 1), lace (Compound 27), 1ahe (Compound 44) and 1aje (Compound 62) were each administered at a dose of 5 mg/kg for 1 week, then MPTP (15 mg/kg x 4 times) was injected. These compounds were additionally administered for 1 week, and then dopamine innervation in the substantia nigra region was analyzed through immunostaining.
Specifically, selegiline, 1aaa, lace, 1ahe, 1aje, and apocynin were administered at a dose of 5 mg/kg for 7 days, then MPTP (15 mg/kg x 4 times) was administered to induce damage to dopaminergic neurons. After 7 days of additional administration of the compounds at the same dose, the animals were sacrificed. Immunostaining was performed using tyrosine hydroxylase antibody to measure the survival rate of substantia nigra dopaminergic neurons. After immunostaining, the number of surviving dopaminergic neurons was analyzed. The results are illustrated in FIG. 8.
In order to evaluate the efficacy of the compounds of the present invention, Compounds 1abv (Compound 22), 1abw (Compound 23), and 1ahs (Compound 52) were each intraperitoneally administered at a dose of 5 mg/kg for 1 week or orally administered at a dose of 50 mg/kg, then MPTP (15 mg/kg x 4 times) was injected. These compounds were additionally administered for 1 week, and then dopamine innervation in the substantia nigra region was analyzed through immunostaining. The results are illustrated in FIG. 9.
In order to evaluate the dopaminergic neuroprotective effect of the compounds of the present invention, Compounds 1aja (Compound 59) and 1abk (Compound 17) were each intraperitoneally administered at a dose of 5 mg/kg for 1 week, then MPTP (15 mg/kg x 4 times) was injected. These compounds were additionally administered for 1 week. After immunostaining using brain slices from each group, surviving dopaminergic neurons were photographed under a microscope and analyzed. The results are illustrated in FIG. 10.
In order to evaluate the dopaminergic neuroprotective effect of the compounds of the present invention, Compounds 1ajs (Compound 63), 1ajy (Compound 67), and 1aqj (Compound 85) were each intraperitoneally administered at a dose of 5 mg/kg for 1 week, then MPTP (15 mg/kg x 4 times) was injected. These compounds were additionally administered for 1 week. After immunostaining using brain slices from each group, surviving dopaminergic neurons were photographed under a microscope and analyzed. The results are illustrated in FIG. 11.

A short description of data set [3]: Single acute toxicity evaluation 2 (2000 mg/kg oral). The data set is classed as in vivo, ICR mice. The protocol:
Acute toxicity properties after single administration of the compounds of the present invention were evaluated in an animal model.

Usually bioavailability stands for the share of a dose that reaches the circulation, judged against a reference dose that is usually intravenous. The low end stands for little systemic uptake, the high end for much systemic uptake. The compound `CN1C(=[Se])N(c2ccccc2)C(=O)/C1=C\c1ccc(O)cc1O` [Compound 1, 5-(2,4-dihydroxybenzylidene)-1-methyl-3-phenyl-2-selenoxoimidazolidine-4-on] registered a bioavailability in the data set “in vivo” of 13%. The IC50 in data set [1] worked out at 20 µM.
Take `Cc1ccc(N2C(=O)C(=Cc3ccc(N4CCCC4)cc3)N(C)C2=[Se])cc1` [Compound 1abk, 1-methyl-5-(4-pyrrolidine-1-yl)benzylidene-2-selenoxo-3-(4-tolyl)imidazolidine-4-on]: in data set [2], the “survival rate of dopaminergic neurons, of that in the control group” value (shortened to “survival rate of dopaminergic neurons”) is on record as 66%.
Regarding `CN1C(=[Se])N(CCc2ccccc2)C(=O)C1=Cc1ccc(N2CCOCC2)cc1` [Compound 1ahs], the “change in body weight” value in data set [3] (day 0) turned out to be 100; in data set [3] (day 2) it was 97.6; in data set [3] (day 4), 100.0; in data set [3] (day 8), 103.8; in data set [3] (day 10), 104.5; in data set [3] (day 14), 105.0.
Take `CCCCCCN1C(=O)C(=Cc2ccc(O)cc2O)N(C)C1=[Se]` [Compound 1aja]: the “survival rate of dopaminergic neurons” value in data set [2] is reported as 76%. For the same compound, the “change in body weight” value in data set [3] (day 0) turned out to be 100; in data set [3] (day 2), 95.6; in data set [3] (day 4) it was 102.8; in data set [3] (day 8), 105.8; in data set [3] (day 10), 107.8; in data set [3] (day 14) it was 107.6.
As for `CN1C(=[Se])N(CCCN2CCOCC2)C(=O)C1=Cc1ccc(Cl)cc1` [Compound 1aqj], the “survival rate of dopaminergic neurons” value in data set [2] was 75.1%. The “change in body weight” value in data set [3] (day 0) is on record as 100; in data set [3] (day 2), 94.6; in data set [3] (day 4), 99.8; in data set [3] (day 8) it was 104.8; in data set [3] (day 10), 105.9; in data set [3] (day 14) it was 106.6.
For the compound `Cc1ccc(N2C(=O)/C(=C\c3ccc(N4CCCCC4)cc3)N(C)C2=[Se])cc1` [Compound 15, 1-methyl-5-(4-piperidine-1-yl)benzylidene-3-(4-tolyl)-2-selenoxoimidazolidine-4-on], the bioavailability in the data set “in vivo” was found to be 11%. In data set [1], the IC50 is 11 µM.
`Cc1ccc(N2C(=O)/C(=C\c3ccc(N4CCN(CCO)CC4)cc3)N(C)C2=[Se])cc1` [Compound 21, 5-(4-(4-(2-hydroxyethyl)piperazine-1-yl)benzylidene)-1-methyl-2-selenoxo-3-(4-tolyl)imidazoline-4-on]: the bioavailability in the data set “in vivo” is 11%.
On to `Cc1ccc(N2C(=O)/C(=C\c3ccc(NCCOCCO)cc3)N(C)C2=[Se])cc1` [Compound 22, 5-(4-((2-(2-hydroxyethoxy)ethyl)amino)benzylidene)-1-methyl-2-selenoxo-3-(4-tolyl)imidazoline-4-on], for which the bioavailability in “in vivo” was determined as 55%. Besides, the IC50 in data set [1] is 2.3 µM.
Take `CN1C(=[Se])N(CCCN2CCOCC2)C(=O)/C1=C\c1ccc(Cl)cc1` [Compound 85, 5-(4-chlorobenzylidene)-1-methyl-3-(3-morpholinopropyl)-2-selenoxoimidazolidine-4-on]: the IC50 in data set [1] amounted to 5 µM.
Same read-out and setting: in the case of `CN1C(=[Se])N(CCCCCCF)C(=O)/C1=C\c1cc(O)cc(O)c1` [Compound 88] it was 18 µM.
On the same count and under the same terms, in the case of `CN1C(=[Se])N(CCCCCF)C(=O)/C1=C\c1ccc(O)cc1O` [Compound 89, 5-(2,4-dihydroxybenzylidene)-3-(5-fluoropentyl)-1-methyl-2-selenoxoimidazolidine-4-on] it was 13 µM; in that of `CCCCCN1C(=O)/C(=C\c2ccc(O)cc2O)N(C)C1=[Se]` [Compound 93, 5-(2,4-dihydroxybenzylidene)-1-methyl-3-pentyl-2-selenoxoimidazolidine-4-on], 2.9 µM.
On the same count and under the same terms, with `CCN1C(=[Se])N(c2ccccc2)C(=O)/C1=C\c1ccc(O)cc1O` [Compound 95, 5-(2,4-dihydroxybenzylidene)-1-ethyl-3-phenyl-2-selenoxoimidazolidine-4-on] the figure was 22 µM.
As for `CCN1C(=[Se])N(c2ccccc2)C(=O)/C1=C\c1cccc(O)c1O` [Compound 96, 5-(2,3-dihydroxybenzylidene)-1-ethyl-3-phenyl-2-selenoxoimidazolidine-4-on], the IC50 in data set [1] came to 44 µM.
As to `CCc1ccc(N2C(=O)/C(=C\c3ccc(Br)cc3)N(CC)C2=[Se])cc1` [Compound 101, 5-(4-bromobenzylidene)-1-ethyl-3-(4-ethylphenyl)-2-selenoxoimidazolidine-4-on], the IC50 in data set [1] worked out at 45 µM.
Turning to `CCc1ccc(N2C(=O)/C(=C\c3ccc(N4CCCC4)cc3)N(CC)C2=[Se])cc1` [Compound 102, 1-ethyl-3-(4-ethylphenyl)-5-(4-pyrrolidine-1-yl)benzylidene-2-selenoxoimidazolidine-4-on], the IC50 in data set [1] was 40 µM.
Consider `O=C1/C(=C\c2cccc(O)c2O)N(Cc2ccccc2)C(=[Se])N1c1ccccc1` [Compound 104, 1-benzyl-5-(2,3-dihydroxybenzylidene)-3-phenyl-2-selenoxoimidazolidine-4-on], for which the IC50 in data set [1] turned out to be 23 µM.
Same read-out and setting: with `O=C1/C(=C\c2ccc(O)c(O)c2)N(Cc2ccccc2)C(=[Se])N1c1ccccc1` [Compound 106, 1-benzyl-5-(3,4-dihydroxybenzylidene)-3-phenyl-2-selenoxoimidazolidine-4-on] the figure was 34 µM; with `O=C1/C(=C\c2cc(O)cc(O)c2)N(Cc2ccccc2)C(=[Se])N1c1ccccc1` [Compound 107, 1-benzyl-5-(3,5-dihydroxybenzylidene)-3-phenyl-2-selenoxoimidazolidine-4-on], 23 µM; with `CCc1ccc(N2C(=O)/C(=C\c3ccc(O)cc3O)N(Cc3ccccc3)C2=[Se])cc1` [Compound 108, 1-benzyl-5-(2,4-dihydroxybenzylidene)-3-(4-ethylphenyl)-2-selenoxoimidazolidine-4-on], 22 µM.
`CCc1ccc(N2C(=O)/C(=C\c3ccc(O)c(O)c3)N(Cc3ccccc3)C2=[Se])cc1` [Compound 109, 1-benzyl-5-(3,4-dihydroxybenzylidene)-3-(4-ethylphenyl)-2-selenoxoimidazolidine-4-on]: in data set [1], the IC50 is 29 µM.
The same measure, in the same setting: with `CCc1ccc(N2C(=O)/C(=C\c3cc(O)cc(O)c3)N(Cc3ccccc3)C2=[Se])cc1` [Compound 110, 1-benzyl-5-(3,5-dihydroxybenzylidene)-3-(4-ethylphenyl)-2-selenoxoimidazolidine-4-on] the figure was 23 µM; with `O=C1/C(=C\c2cccc(O)c2O)N(Cc2ccccc2)C(=[Se])N1c1ccc(Cl)cc1` [Compound 111, 1-benzyl-3-(4-chlorophenyl)-5-(2,3-dihydroxybenzylidene)-2-selenoxoimidazolidine-4-on], 26 µM; with `O=C1/C(=C\c2ccc(O)c(O)c2)N(Cc2ccccc2)C(=[Se])N1c1ccc(Cl)cc1` [Compound 112, 1-benzyl-3-(4-chlorophenyl)-5-(3,4-dihydroxybenzylidene)-2-selenoxoimidazolidine-4-on], 31 µM.
